# Laboratory results from patent publication EP0452680A1 (priority 1990, dated 1991).
# What was measured:
# Herpesviren = experiment: General statement on antiviral activity (no specific test named); conditions: qualitative statement in the description
# in vitro [1] = conditions: monkey, vero cells
# in vitro [2] = conditions: monkey, vero cells; remark: listed apart in the source
# in vitro [3] = conditions: human, hela cells
# in vitro [4] = conditions: bovine, mdbk cells
Structure (SMILES),antivirale Aktivität gegen Herpesviren (Herpesviren),MNTC (in vitro [1]) [µg/mL],MNTC (in vitro [2]) [µg/mL],MNTC (in vitro [3]) [µg/mL],MNTC (in vitro [4]) [µg/mL]
"CC(C)OCC(COC(C)C)OCn1cnc2nc(N)ncc21 [Beispiel 6.7., 2-Amino-7-[1,3-bis(isopropoxy)-2-propoxymethyl]purin]",besonders hohen antiviralen Aktivität,> 400,> 400,> 400,> 400
"CC(C)OCC(CO)OCn1cnc2nc(N)ncc21 (centres unmarked) [Beispiel 6.10., 2-Amino-7-(1-hydroxy-3-isopropoxy-2-propoxymethyl)-purin]",besonders hohen antiviralen Aktivität,> 400,> 400,> 400,> 400
"Nc1ncc2c(ncn2COC(CO)CO)n1 [Beispiel 6.12., 2-Amino-7-(1,3-dihydroxy-2-propoxymethyl)-purin]",besonders hohen antiviralen Aktivität,133,133,44.4,> 400
Nc1nc2ncn(COC(CO)CO)c2c(=O)[nH]1 [reference compound],–,> 400,> 400,> 400,> 400
Nc1nc(O)c2ncn(COC(CO)CO)c2n1 [reference compound],–,> 400,> 400,> 400,> 133
